Data from article PMC10209615, “Pharmacological inhibition of LSD1 suppresses growth of hepatocellular carcinoma by inducing GADD45B” (MedComm, 2023).
pIC50: −log10 of the molar value.

Tests used:
[1] = test system: Hep3B; test: MTT assay, ZY0511 and DTP3; assay type: cell-based; conditions: Homo sapiens, 96 h, read-out: Inhibition rate
Experimental: (§1) Cell viability was determined using Cell Counting Kit‐8 (CCK8; Dojindo) or 3‐(4, 5‐dimethylthiazol‐2‐yl)‐2,5‐diphenyltetrazoliumbromide (MTT, Sigma Aldrich) assay. A selection of HCC cells was exposed to gradient concentration of ZY0511 for 96–144 h, or exposed to other LSD1 inhibitors including SP2509, GSK2879552, and ORY1001 for 144 h, or exposed to DTP3, which enhanced the apoptosis induction function of GADD45B for 96 h in combination therapy. Consequently, cell viability was determined using a microplate reader (Thermo Fisher) at 450 nm for CCK8 assay, or 570 nm for MTT assay, at different time points. The IC50 values and CI values were analyzed and calculated using GraphPad Prism 8 and CompuSyn (version 1.0; http://www.combosyn.com), respectively.

[2] = test system: HepG2; test: MTT assay, ZY0511 and DTP3; assay type: cell-based; conditions: Homo sapiens, HepG2, 96 h, read-out: Inhibition rate
Experimental: as §1

[3] = target: T1, TrkC (Homo sapiens, UniProt Q16288); test: Kinase activity detection (Eurofins); assay type: biochemical; conditions: ZY0511 1 µM, read-out: Inhibition rate
T1 construct: purchased Eurofins Pharma Discovery Services (KinaseProfiler)
T1 sequence (Q16288 32-839): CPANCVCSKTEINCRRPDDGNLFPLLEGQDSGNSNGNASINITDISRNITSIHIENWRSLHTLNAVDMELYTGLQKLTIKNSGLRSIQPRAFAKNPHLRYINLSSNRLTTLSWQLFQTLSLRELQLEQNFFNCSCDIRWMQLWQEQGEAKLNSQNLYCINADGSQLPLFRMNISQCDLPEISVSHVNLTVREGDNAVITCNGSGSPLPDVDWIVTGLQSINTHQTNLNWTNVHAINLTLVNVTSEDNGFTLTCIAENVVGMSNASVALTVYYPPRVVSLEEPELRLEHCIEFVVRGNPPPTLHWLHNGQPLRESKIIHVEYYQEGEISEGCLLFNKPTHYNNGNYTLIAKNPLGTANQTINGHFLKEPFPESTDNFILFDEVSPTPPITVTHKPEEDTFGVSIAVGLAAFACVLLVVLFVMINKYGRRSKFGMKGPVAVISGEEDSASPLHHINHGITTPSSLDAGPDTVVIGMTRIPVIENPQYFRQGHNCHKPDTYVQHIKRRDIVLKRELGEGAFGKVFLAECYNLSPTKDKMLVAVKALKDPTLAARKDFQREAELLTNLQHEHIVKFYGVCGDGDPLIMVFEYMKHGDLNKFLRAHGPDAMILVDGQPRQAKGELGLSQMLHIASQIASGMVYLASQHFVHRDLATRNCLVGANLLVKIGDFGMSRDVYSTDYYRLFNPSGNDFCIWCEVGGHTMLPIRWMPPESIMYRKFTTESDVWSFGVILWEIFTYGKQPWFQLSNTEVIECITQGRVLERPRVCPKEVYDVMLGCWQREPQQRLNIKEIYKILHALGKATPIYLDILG
Experimental: (§2) The activity of ZY0511 against 104 cancer‐related kinases was carried out by Eurofins Pharma Discovery Services (Celle Lévescault, France).

[4] = target: T2, Abl (T315I) (Homo sapiens, UniProt P00519, T315I); test: Kinase activity detection (Eurofins); assay type: biochemical; conditions: ZY0511 1 µM, read-out: Inhibition rate
T2 construct: purchased Eurofins Pharma Discovery Services
Experimental: as §2

[5] = target: T3, Bmx (Homo sapiens, UniProt P51813); test: Kinase activity detection (Eurofins); assay type: biochemical; conditions: ZY0511 1 µM, read-out: Inhibition rate
T3 construct: purchased Eurofins Pharma Discovery Services (KinaseProfiler)
T3 sequence (P51813 whole entry): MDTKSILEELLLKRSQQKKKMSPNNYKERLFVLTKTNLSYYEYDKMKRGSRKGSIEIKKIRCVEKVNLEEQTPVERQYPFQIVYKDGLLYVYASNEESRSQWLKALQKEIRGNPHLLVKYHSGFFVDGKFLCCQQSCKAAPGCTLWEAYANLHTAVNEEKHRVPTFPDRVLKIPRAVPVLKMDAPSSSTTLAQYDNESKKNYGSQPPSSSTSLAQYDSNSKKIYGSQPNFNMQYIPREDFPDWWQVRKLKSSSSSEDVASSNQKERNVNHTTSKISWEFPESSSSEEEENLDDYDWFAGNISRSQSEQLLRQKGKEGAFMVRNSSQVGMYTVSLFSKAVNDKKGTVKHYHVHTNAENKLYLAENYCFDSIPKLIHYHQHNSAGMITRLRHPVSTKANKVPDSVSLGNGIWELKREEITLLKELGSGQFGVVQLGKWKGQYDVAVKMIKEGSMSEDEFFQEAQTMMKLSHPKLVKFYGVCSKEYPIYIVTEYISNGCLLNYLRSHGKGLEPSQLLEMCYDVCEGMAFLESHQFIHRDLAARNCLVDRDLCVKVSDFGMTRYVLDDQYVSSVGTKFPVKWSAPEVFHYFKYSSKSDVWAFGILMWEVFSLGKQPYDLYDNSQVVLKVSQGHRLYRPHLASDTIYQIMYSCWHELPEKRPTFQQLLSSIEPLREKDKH
Experimental: as §2

[6] = target: T4, CHK1 (Homo sapiens, UniProt O14757); test: Kinase activity detection (Eurofins); assay type: biochemical; conditions: ZY0511 1 µM
T4 construct: purchased Eurofins Pharma Discovery Services (KinaseProfiler)
T4 sequence (O14757 whole entry): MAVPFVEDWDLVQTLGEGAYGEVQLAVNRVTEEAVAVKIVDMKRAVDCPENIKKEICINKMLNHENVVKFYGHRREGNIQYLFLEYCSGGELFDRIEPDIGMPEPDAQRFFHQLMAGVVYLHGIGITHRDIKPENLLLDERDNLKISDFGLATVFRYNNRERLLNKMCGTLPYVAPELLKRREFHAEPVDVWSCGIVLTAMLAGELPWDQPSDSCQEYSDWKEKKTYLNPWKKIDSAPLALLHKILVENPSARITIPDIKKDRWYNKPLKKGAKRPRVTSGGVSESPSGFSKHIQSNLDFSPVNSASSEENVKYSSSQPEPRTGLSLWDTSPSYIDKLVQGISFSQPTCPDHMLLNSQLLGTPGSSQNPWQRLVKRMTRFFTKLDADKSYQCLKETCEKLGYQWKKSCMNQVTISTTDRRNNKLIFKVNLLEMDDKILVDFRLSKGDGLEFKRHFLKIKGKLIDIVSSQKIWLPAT
Experimental: as §2

[7] = target: T5, IGF-1R (Homo sapiens, UniProt P08069); test: Kinase activity detection (Eurofins); assay type: biochemical
T5 construct: purchased Eurofins Pharma Discovery Services
T5 sequence (P08069 31-1367, species assumed): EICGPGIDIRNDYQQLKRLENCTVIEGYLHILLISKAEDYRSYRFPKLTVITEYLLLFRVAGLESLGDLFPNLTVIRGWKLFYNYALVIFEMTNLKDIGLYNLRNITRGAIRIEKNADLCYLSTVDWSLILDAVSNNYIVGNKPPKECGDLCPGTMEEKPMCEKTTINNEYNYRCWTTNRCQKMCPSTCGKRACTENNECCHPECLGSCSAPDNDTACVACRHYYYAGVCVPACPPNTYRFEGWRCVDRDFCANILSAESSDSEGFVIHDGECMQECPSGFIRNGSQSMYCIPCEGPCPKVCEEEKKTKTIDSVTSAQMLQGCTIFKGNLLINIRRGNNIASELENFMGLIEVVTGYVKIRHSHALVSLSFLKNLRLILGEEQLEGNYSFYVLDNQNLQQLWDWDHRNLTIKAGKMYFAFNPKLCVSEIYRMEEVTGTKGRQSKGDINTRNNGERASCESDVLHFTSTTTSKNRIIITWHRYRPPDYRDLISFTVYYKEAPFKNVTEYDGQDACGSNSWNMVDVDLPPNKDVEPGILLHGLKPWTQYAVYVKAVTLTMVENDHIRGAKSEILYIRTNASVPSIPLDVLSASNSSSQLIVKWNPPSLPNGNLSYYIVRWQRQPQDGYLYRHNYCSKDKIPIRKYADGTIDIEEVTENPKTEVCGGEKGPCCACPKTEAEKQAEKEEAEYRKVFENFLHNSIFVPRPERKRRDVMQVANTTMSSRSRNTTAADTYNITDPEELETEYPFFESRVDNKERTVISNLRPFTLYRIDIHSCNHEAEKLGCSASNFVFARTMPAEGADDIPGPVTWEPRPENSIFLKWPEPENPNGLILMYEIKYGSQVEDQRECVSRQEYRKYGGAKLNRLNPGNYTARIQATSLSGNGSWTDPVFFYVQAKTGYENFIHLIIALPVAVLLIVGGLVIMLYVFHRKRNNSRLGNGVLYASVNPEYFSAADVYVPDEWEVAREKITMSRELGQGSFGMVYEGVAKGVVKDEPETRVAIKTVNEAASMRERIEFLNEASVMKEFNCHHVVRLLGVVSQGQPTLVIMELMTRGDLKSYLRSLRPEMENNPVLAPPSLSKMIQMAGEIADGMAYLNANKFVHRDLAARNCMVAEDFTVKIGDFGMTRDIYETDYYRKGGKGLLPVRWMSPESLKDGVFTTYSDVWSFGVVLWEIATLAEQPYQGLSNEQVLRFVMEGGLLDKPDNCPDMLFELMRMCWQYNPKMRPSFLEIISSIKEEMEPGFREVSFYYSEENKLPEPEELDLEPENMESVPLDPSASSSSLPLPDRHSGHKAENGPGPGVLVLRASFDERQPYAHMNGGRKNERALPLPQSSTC
Experimental: as §2

[8] = target: T6, DCAMKL3 (Homo sapiens, UniProt Q9C098); test: Kinase activity detection (Eurofins); assay type: biochemical; conditions: ZY0511 1 µM, read-out: Inhibition rate
T6 construct: purchased Eurofins Pharma Discovery Services
Experimental: as §2

[9] = target: T7, DDR2 (Homo sapiens, UniProt Q16832); test: Kinase activity detection (Eurofins); assay type: biochemical; conditions: ZY0511 1 µM, read-out: Inhibition rate
T7 construct: purchased Eurofins Pharma Discovery Services (KinaseProfiler)
T7 sequence (Q16832 22-855): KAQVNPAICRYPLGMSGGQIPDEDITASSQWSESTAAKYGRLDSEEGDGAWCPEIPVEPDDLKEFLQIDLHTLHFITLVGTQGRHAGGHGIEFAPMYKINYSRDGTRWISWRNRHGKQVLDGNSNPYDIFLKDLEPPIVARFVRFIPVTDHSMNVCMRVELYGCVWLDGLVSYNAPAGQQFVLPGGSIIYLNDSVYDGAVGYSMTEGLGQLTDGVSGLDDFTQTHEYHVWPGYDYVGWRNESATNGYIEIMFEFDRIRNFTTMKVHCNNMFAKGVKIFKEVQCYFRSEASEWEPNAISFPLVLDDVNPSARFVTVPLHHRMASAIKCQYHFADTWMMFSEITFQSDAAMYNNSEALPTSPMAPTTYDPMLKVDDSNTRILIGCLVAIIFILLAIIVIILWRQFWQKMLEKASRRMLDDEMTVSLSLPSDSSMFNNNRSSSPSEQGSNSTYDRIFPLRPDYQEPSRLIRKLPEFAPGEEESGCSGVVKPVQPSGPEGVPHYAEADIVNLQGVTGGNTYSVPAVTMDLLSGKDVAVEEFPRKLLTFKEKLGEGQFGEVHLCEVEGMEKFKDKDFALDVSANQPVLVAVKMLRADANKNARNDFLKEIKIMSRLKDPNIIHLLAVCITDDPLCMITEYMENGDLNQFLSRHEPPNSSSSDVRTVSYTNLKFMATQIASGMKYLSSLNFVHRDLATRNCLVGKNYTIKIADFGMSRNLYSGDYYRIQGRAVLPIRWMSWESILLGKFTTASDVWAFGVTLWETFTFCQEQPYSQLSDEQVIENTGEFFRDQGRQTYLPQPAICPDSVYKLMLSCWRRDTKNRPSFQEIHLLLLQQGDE
Experimental: as §2

[10] = target: T8, ATM (Homo sapiens, UniProt Q13315); test: Kinase activity detection (Eurofins); assay type: biochemical
T8 construct: purchased Eurofins Pharma Discovery Services
Experimental: as §2

[11] = target: T9, PKCε (Homo sapiens, UniProt Q02156); test: Kinase activity detection (Eurofins); assay type: biochemical; conditions: ZY0511 1 µM, read-out: Inhibition rate
T9 construct: purchased Eurofins Pharma Discovery Services (KinaseProfiler)
T9 sequence (Q02156 whole entry): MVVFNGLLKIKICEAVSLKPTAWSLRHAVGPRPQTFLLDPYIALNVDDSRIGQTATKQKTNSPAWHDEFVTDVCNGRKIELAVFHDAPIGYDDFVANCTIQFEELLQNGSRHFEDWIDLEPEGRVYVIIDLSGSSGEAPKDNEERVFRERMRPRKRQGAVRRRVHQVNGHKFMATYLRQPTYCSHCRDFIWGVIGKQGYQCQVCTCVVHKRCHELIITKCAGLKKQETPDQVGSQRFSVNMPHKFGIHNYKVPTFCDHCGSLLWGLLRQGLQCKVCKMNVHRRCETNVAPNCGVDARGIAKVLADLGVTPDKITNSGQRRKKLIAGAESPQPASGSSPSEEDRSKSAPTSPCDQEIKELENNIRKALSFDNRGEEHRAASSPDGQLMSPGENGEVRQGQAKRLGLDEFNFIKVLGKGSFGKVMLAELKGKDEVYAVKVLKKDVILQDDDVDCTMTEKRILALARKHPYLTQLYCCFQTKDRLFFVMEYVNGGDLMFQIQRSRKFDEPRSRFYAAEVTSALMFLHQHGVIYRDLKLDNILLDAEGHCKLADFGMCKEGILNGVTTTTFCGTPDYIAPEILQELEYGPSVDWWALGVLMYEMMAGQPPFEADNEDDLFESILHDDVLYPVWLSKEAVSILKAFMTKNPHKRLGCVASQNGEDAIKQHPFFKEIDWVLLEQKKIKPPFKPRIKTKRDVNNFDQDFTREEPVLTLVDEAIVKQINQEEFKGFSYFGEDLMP
Experimental: as §2

SMILES: O=C(N/N=C1\CCc2c(Cl)ccc(O)c21)c1cccc(S(=O)(=O)N2CCOCC2)c1 [ZY0511, (E)‐N'‐(2, 3‐dihydro‐1H‐inden‐1‐ylidene) benzohydrazides]
- inhibition at 0.25 µM [1]: 31%
- inhibition at 0.5 µM [1]: 42%
- inhibition at 1 µM [1]: 49%
- inhibition at 2 µM [1]: 61%
- inhibition at 0.25 µM [2]: 47%
- inhibition at 0.5 µM [2]: 65%
- inhibition at 1 µM [2]: 79%
- inhibition at 2 µM [2]: 80%
- inhibition at 1 µM [3]: 7%
- inhibition at 1 µM [4]: 1%
- inhibition at 1 µM [5]: 17%
- Activation rate [6]: 1%
- activation at 1 µM ([7]; IGF-1R, ZY0511 1 µM, read-out: Activation rate): 185%
- pIC50 ([7]; IGF‐1R): < 5.00
- inhibition at 1 µM [8]: 3%
- inhibition at 1 µM [9]: 5%
- pIC50 [10]: 5.01
- inhibition at 1 µM [11]: 8%
